Tests used:
Format in all cases: ADME, organism-based
Conditions in all cases: in vivo
[1] = Oral bioavailability in Wistar rat at 20 mg/kg by LC-MS/MS analysis
[2] = Oral bioavailability in human
[3] = Tmax in Wistar rat at 20 mg/kg, […] by LC-MS/MS analysis
[4] = Tmax in Wistar rat at 200 mg/kg, […] by LC-MS/MS analysis

bioavailability [1]: 61.2%
bioavailability [2]: 2.67%
Tmax [3]: 62.4 min
Tmax [4]: 39.6 min
SMILES: C=C1CC[C@@H]2[C@](C)(CO)[C@H](O)CC[C@@]2(C)[C@@H]1C/C=C1/C(=O)OC[C@H]1O [ANDROGRAPHOLIDE]
